Values quoted from earlier work as cited in patent US20170165627A1, “MICROENCAPSULATION PROCESS” (ENCAPSYS, LLC, priority 2015, published 2017).
Values after ≈ are worked out from the molar mass of the structure shown.

Conditions: @ 25° C.

**Q.** Which Solubility in water does the source give for `C=CC(=O)OCCOCCOCC` [SR256, 2-(2-ethoxyethoxy) ethyl acrylate] here?
**A.** The Solubility in water was 25.33 mg/mL (≈ 135 mM).

**Q.** With “Polyethylene glycol 200 diacrylate [SR259]” as the molecule, how does the Solubility in water read?
**A.** The Solubility in water was 40.68 mg/mL.

**Q.** Which Solubility in water does the source give for “Polyethylene glycol 400 diacrylate [SR344]” here?
**A.** The Solubility in water was “Water soluble”.

**Q.** With “polyethylene glycol (600) diacrylate [SR610]” as the molecule, how does the Solubility in water read?
**A.** The Solubility in water was “Water soluble”.

Conditions: temperature at which the initiator has a 10 hour half-life

**Q.** For `CC(C)(N=NC(C)(C)C(=N)N)C(=N)N.Cl` [Example V-50, 2,2′-azobis(2-amidinopropane) hydrochloride], which “10 hour ½ life at (temperature)” value is on record?
**A.** Its value is “½ life at 56 °C”.

**Q.** For `CC(C)(N=NC(C)(C)C(=O)NCCO)C(=O)NCCO` [VA-086, 2,2′-Azobis[2-methyl-N-(2-hydroxyethyl)propionamide]], which “10 hour ½ life at (temperature)” value is on record?
**A.** Its value is 10 hour ½ life at 86 °C.

**Q.** For `CCC(C)(C#N)N=NC(C)(C#N)CC` (centres unmarked) [Vazo-67, 2,2′-azobis(2-methylbutyronitrile)], which “10 hour ½ life at (temperature)” value is on record?
**A.** Its value is 67 °C.

**Q.** Which “10 hour ½ life at (temperature)” value does the source give for `N#CC1(N=NC2(C#N)CCCCC2)CCCCC1` [Vazo-88, 1,1′-Azobis(cyclohexanecarbonitrile)] here?
**A.** Its value is 88 °C.
